Source: PubChem BioAssay (NCI)
Several values for one entry are separate records, joined by “and”; a condition that tells them apart may be missing. Equal entries are not always repeated.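 1) Cells in 96-well plates. 2) Compound, 48 h, 5 concentrations. 3) Linear interpolation between surrounding doses. 4) Unreached endpoint = highest concentration. Here, GI50 denotes the concentration required for 50% inhibition of growth. At the TGI there is no net growth.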

Tests used:
Assay in all cases: inhibition of tumour cell growth, NCI panel, 48 h
HCT-116 colon = system: HCT-116 colon
MCF7 breast = system: MCF7 breast
MDA-MB-231 breast = system: MDA-MB-231 breast
T-47D breast = system: T-47D breast
PC-3 prostate = system: PC-3 prostate
KM20L2 colon = system: KM20L2 colon
DLD-1 colon = system: DLD-1 colon
M19-MEL melanoma = system: M19-MEL melanoma

Row | Structure (SMILES) | GI50 (HCT-116 colon) | TGI (HCT-116 colon) | GI50 (MCF7 breast) | TGI (MCF7 breast) | GI50 (MDA-MB-231 breast) | TGI (MDA-MB-231 breast) | GI50 (T-47D breast) | TGI (T-47D breast) | GI50 (PC-3 prostate) | TGI (PC-3 prostate) | TGI (KM20L2 colon) | TGI (DLD-1 colon) | TGI (M19-MEL melanoma) | GI50 (KM20L2 colon) | GI50 (DLD-1 colon)
1 | O=C1c2ccccc2-c2c1c1ccccc1c(=O)n2CCNCCn1c2c(c3ccccc3c1=O)C(=O)c1ccccc1-2 | > 25 µM | > 25 µM | > 25 µM | > 25 µM | 18.2 µM | > 25 µM | – | – | – | – | – | – | – | – | –
2 | COc1ccc(F)c(F)c1C(=O)c1cnc(NC2CCN(S(C)(=O)=O)CC2)nc1N | 0.257 µM and 0.183 µM | > 100 µM | 0.0674 µM and 0.0458 µM | > 100 µM | 0.805 µM and 0.262 µM | – | 1.04 µM and 0.678 µM | 11.8 µM and > 8.01 µM | 0.385 µM and 0.411 µM | 5.44 µM and 5.92 µM | – | – | – | – | –
3 | O=C(O)c1ccccc1C(=O)c1ccc2c(c1)Cc1ccccc1-2 | – | > 100 µM | – | > 100 µM | – | > 100 µM | – | > 100 µM | – | > 100 µM | – | – | – | – | –
4 | COc1ccc2c(NCCCCCCNc3c4ccccc4nc4cc(OC)ccc34)c3ccccc3nc2c1 | – | 0.333 µM | – | 3.35 µM | – | 0.385 µM | – | 6.16 µM | – | 0.543 µM | 1.17 µM | 2.62 µM | – | – | –
5 | CCCCCCCCCCCCCC[n+]1cccc(C(N)=O)c1 | 1.61 µM | 3.97 µM | 2.62 µM | 11.4 µM | 1.45 µM | 4.54 µM | 4.66 µM | 27.6 µM | 0.598 µM | 2.94 µM | – | – | – | – | –
6 | c1cnn2ncc(-c3ccnc(Nc4ccc5c(c4)OCCO5)n3)c2c1 | 0.0533 µM | 1.04 µM | 0.0797 µM | > 25 µM | 0.0914 µM | > 25 µM | 0.084 µM | 0.495 µM | 0.0955 µM | > 25 µM | – | – | – | – | –
7 | COc1ccc(Nc2nccc(N3CCN(c4c5ccc(Cl)cc5nc5ccc(OC)cc45)CC3)n2)cc1 | 3.87 µM | > 100 µM | 3.67 µM | > 100 µM | 4.63 µM | > 100 µM | 2.99 µM | 44.7 µM | – | – | – | – | – | – | –
8 | N#Cc1c(-c2ccco2)cc(-c2ccccc2)[nH]c1=O | – | > 100 µM | – | – | – | – | – | – | – | – | > 100 µM | > 100 µM | > 100 µM | – | –
9 | CC(C)Oc1ccc(C(=O)Cn2ccnc2)cc1-n1c(CN2CCN(C(=O)COc3ccc(Cl)cc3)CC2)nc2ccccc2c1=O | 8.68 µM | 24.9 µM | 12 µM | 35.5 µM | 4.32 µM | 19.7 µM | 14.3 µM | > 95.4 µM | 9.44 µM | 37.2 µM | – | – | – | – | –
10 | CN1c2ccccc2SC2C(c3ccccc3)=NOC21 (stereo not given) | – | 60.7 µM | – | > 100 µM | – | > 100 µM | – | 94.3 µM | – | 71 µM | – | – | – | – | –
11 | c1ccc(-c2nc(N3CCCNCC3)c3nc(-c4ccccc4)oc3n2)cc1 | 1.65 µM | 3.35 µM | 1.67 µM | 3.34 µM | 1.72 µM | 3.21 µM | 1.78 µM | 3.64 µM | – | – | – | – | – | – | –
12 | Cc1cccc(N=Nc2ccc(N=Nc3c(O)ccc4ccccc34)cc2C)c1 | – | > 100 µM | – | > 100 µM | – | > 100 µM | – | – | – | > 100 µM | – | – | – | – | –
13 | O=C(Cl)C1=C(c2ccccc2)C1c1ccccc1 (stereo not given) | – | > 100 µM | – | > 100 µM | – | > 100 µM | – | > 100 µM | – | > 100 µM | – | – | – | – | –
14 | CC1c2ccccc2N=C2SC(=S)N3CCN=C3N21 (stereo not given) | > 100 µM | > 100 µM | > 100 µM | > 100 µM | > 100 µM | > 100 µM | > 100 µM | > 100 µM | > 100 µM | > 100 µM | – | – | – | – | –
15 | COc1c(O)c(OC)c2oc(-c3ccc(O)cc3)c(OC)c(=O)c2c1O | – | > 100 µM | – | > 100 µM | – | > 100 µM | – | 55.7 µM | – | > 100 µM | – | – | – | – | –
16 | CC(=Nc1ccc(S(N)(=O)=O)cc1)c1c(O)[nH]c2ccccc12 | > 22.8 µM | > 25 µM | > 17.5 µM | > 25 µM | > 25 µM | > 25 µM | > 8.37 µM | > 25 µM | > 25 µM | > 25 µM | – | – | – | – | –
17 | [2H]c1nc(=Nc2cc(NC(=O)C=C)c(N(C)CCN(C)C)cc2OC)[nH]c(-c2cn(C([2H])([2H])[2H])c3ccccc23)c1[2H] | 1.48 µM | 2.83 µM | 1.39 µM | 3.23 µM | 1.27 µM | 2.81 µM | 1.07 µM | 2.83 µM | 1.61 µM | 3.5 µM | – | – | – | – | –
18 | CC(C)[O-].CC(C)[O-].CN(CCN(C)Cc1cc(F)cc(F)c1[O-])Cc1cc(F)cc(F)c1[O-].[Ti+4] | 0.792 µM | 4.86 µM | 0.687 µM | 2.78 µM | 1.67 µM | 10.5 µM | 0.416 µM | 8.31 µM | 1.23 µM | 5.43 µM | – | – | – | – | –
19 | COc1cc2nc(-c3ccc(C(F)(F)F)cc3)cc(OCCCN3CCCC3)c2cc1OC | 0.333 µM | 4.29 µM | 1.12 µM | 4.13 µM | 0.532 µM | 8.23 µM | 0.478 µM | 15.9 µM | 1.14 µM | 9.79 µM | – | – | – | – | –
20 | O=C1c2cccc3cccc(c23)C(=O)N1O | – | > 100 µM | – | > 100 µM | – | > 100 µM | – | > 100 µM | – | > 100 µM | – | – | – | – | –
21 | COc1ccc(-c2cnoc2-c2cc(OC)c3c(c2)OCCO3)cc1 | 0.0396 µM | > 37 µM | 0.0304 µM | > 100 µM | 0.0509 µM | – | – | – | 0.0377 µM | > 100 µM | – | – | – | – | –
22 | O=[N+]([O-])c1ccc(-c2cc3c(Nc4ccc(Cl)c(C(F)(F)F)c4)ncnc3s2)cc1 | 1.51 µM | > 100 µM | 0.982 µM | > 100 µM | 0.382 µM | 1.63 µM | 0.407 µM | 6.1 µM | 0.802 µM | > 100 µM | – | – | – | – | –
23 | CCN(CC)c1ccc(/C=C/C2=[N+](C)c3ccccc3C2(C)C)c(C)c1 | < 0.02 µM | 3.82 µM | 0.0574 µM | 1.62 µM | 0.101 µM | 2.27 µM | < 0.0272 µM | 1.61 µM | 0.0225 µM | 1.67 µM | – | – | – | – | –
24 | N.N.N.N.N.O=S(=O)([O-])S(=O)(=O)[O-].[Co+3] | > 100 µM | > 100 µM | – | – | – | – | – | – | – | – | > 100 µM | > 100 µM | – | > 100 µM | > 100 µM
25 | CSc1ccc(N(C)c2nc(C)nc3c2CCC3)cc1 | – | – | < 0.01 µM | > 100 µM | < 0.01 µM | 72.4 µM | – | – | < 0.01 µM | 51.6 µM | – | – | – | – | –
